Tests used:
L. starkeyi (51-55) = assay: Encapsulation of curcumin into cultured yeast, lipogenesis induced or suppressed; format: physicochemical, Lipomyces starkeyi; settings: vacuum infused, 35% ethanol
Text: Increased lipid content both improves the relative encapsulation efficiency of hydrophobic bioactives and the oxidative stability of encapsulated bioactives. In this aim, three strains (Saccharomyces cerevisiae, Candida utilis, Phaffia rhodozyma) of yeast with high and low lipid content (high lipid ascomycete and Saccharomyces cerevisiae (low lipid)) are selected. Similarly, and two strains of algal cells are selected (Chlorella minutissima (UTEX 2341), Chlorella sorokiniana (UTEX 2805). The yeast and algal cells are cultured to achieve varying levels of lipid content by influencing the extracellular nutrients, e.g. in the case of algal cells, deprivation of nitrogen in extracellular media can shift the metabolism to generate lipids, with varying levels of nitrogen, intracellular lipid content is modulated. The intracellular lipids are extracted from freeze dried yeast and algal cells and measured using established gravimetric methods. To induce lipogenesis, 5 mL of the pre-culture are transferred into a 500 mL baffled conical flask with 95 mL of media A (50 g/L glucose, 1.5 g/L yeast extract, 0.5 g/L NH4Cl, 7.0 g/L KH2PO4, 2.5 g/L Na2HPO4.2H2O, 1.5 g/L MgSO4.7H2O, 0.08 g/L FeCl3.6H2O, 10.0 mg/L ZnSO4.7H2O, 0.07 mg/L MnSO4.H2O, 0.1 mg/L CuSO4, 0.063 mg/L Co(NO3)2) and closed with a foam cap. […]

L. casei (S1) = assay: Encapsulation efficiency into bacteria by vacuum infusion; format: physicochemical, Lactobacillus casei; settings: vacuum infused, 35% ethanol

COc1cc(/C=C/C(=O)CC(=O)/C=C/c2ccc(O)c(OC)c2)ccc1O [Curcumin, curcumin]
Mass of Encapsulated Bioactive in Yeast (L. starkeyi (51-55); lipogenesis Induced): 0.559 mg/g | Mass of Encapsulated Bioactive in Yeast (L. starkeyi (51-55); lipogenesis Suppressed): 0.466 mg/g | Mass of Encapsulated Bioactive in Bacteria (L. casei (S1)): 1.041 mg/g

Source: patent publication US10864168B2, “Bioactive delivery vehicles” (The Regents of the University of California, priority 2014, dated 2020)
